The text below walks through data of publication PMC7525093, “Bis-Quinolinium Cyclophane Blockers of SK Potassium Channels Are Antagonists of M3 Muscarinic Acetylcholine Receptors” (Frontiers in Pharmacology, 2020).

Several values for one entry are separate records, joined by “and”; a condition that tells them apart may be missing. Identical values can stand only once. Like-named read-outs stand apart in the source and are kept apart here.

The subject of one assay is mouse lung lower airways. Nature of the assay: Bronchial diameter changes in mouse lung slices. The settings on record: 3.5 μM UCL 1684; 0.5 μM carbachol. The procedure:
Experiments using mouse lung slices were conducted as described ([Sanderson, 2011]). Eight-week-old Balb/C mice were sacrificed by deep isoflurane anesthesia followed by cervical dislocation. Trachea were isolated, cannulated with a blunt needle and the lungs filled with 3 ml of Hanks balanced salt solution (HBSS) with 2% low-temperature melt agarose at 37°C followed by 0.5 ml of air to clear the airways of agarose. The mouse thoracic cavity was exposed and the lungs chilled with an ice bath. After gelling of the agarose, the lungs were removed and 200 μm sections made with a Leica Vibratome VT1200. The sections were placed in DMEM in a tissue-culture incubator at 37°C for up to 8 h. Experiments measuring diameter changes were conducted using an inverted 10X phase contrast objective and oblique lighting in a constant perfusion (0.5 ml/min) bath of HBSS at 22°C solution.

The next assay deals with bladder. Put plainly: Isometric bladder ring tension measurement. Further details: species or system mouse. As to conditions: 3.5 μM; 0.5 μM carbachol. The protocol:
Mice used in these studies were BALB/C mice from Jackson Labs. All animal procedures were reviewed and approved by the University of Texas Health Science Center at San Antonio Institutional Animal Care and Use Committee. For tracheal constriction studies, animals were deeply anesthetized with isoflurane and then sacrificed by cervical dislocation. Isometric tracheal contraction measurements were performed as previously described ([Semenov et al., 2012]). Trachea were removed and surrounding tissues dissected in ice-cold physiologic saline solution (PSS) consisting of 119 mM NaCl, 4.7 mM KCl, 2.0 mM CaCl2, 1.0 mM KH2PO4, 1.17 mM MgSO4, 18 mM NaHCO3, 0.026 mM EDTA, 11 mM glucose, and 12.5 mM sucrose. Trachea were cut below the pharynx and above the primary bronchus bifurcation. Two metal wires, attached to a force transducer and micrometer (Radnoti, LLC), were threaded into the lumen of the trachea. Trachea were placed into an oxygenated organ bath (95% O2, 5% CO2), at 37°C, pH 7.35 (after bubbling with 95% O2–5% CO2). Tracheal resting tension was readjusted to 1 gram over 1 h and then challenged with 67 mM potassium PSS with NaCl adjusted to 56.7 mM to maintain proper osmolarity (KPS). Trachea were challenged two or more times until reproducible contractile responses were achieved. All subsequent experimental drug responses were normalized to the KPS response. […]

Another assay has as its target T1, M3 mACHR (Homo sapiens, UniProt P20309).
T1 construct: expressed in transfected cells; host or cells: membranes of M3 mACHR-expressing CHO cells
Nature of the assay: [3H]-NMS competition binding, M3 mACHR-expressing CHO cell membranes. As to conditions: 0.9 nM [3H]-NMS. The protocol: Competition binding assays were done with [^3H]-N-methyl-scopolamine ([3H]-NMS, PerkinElmer) essentially as described ([Steinfeld et al., 2010]) with minor modifications. Membrane homogenates were prepared in HEPES assay buffer (20 mM HEPES, 100 mM NaCl, and 10 mM MgCl, pH 7.4) by trituration on ice through a 26-gauge needle followed by centrifugation at 39,000g in Sorval RC-6+ centrifuge. Membranes were resuspended in assay buffer and protein concentration determined by the method of Bradford using bovine serum albumin as a standard ([Bradford, 1976]). Membranes (25 µg) were incubated along with 0.9 nM ^3H- NMS without or with UCL1684 concentrations (10^-11M to 10^-4M in triplicate) for 120 min at 30°C in 96 multiwell GF/C filter plates (MilliporeSigma) coated with 0.3% polyethyleneimine (Sigma). The assay was terminated by rapid filtration using a MilliporeSigma vacuum manifold followed by three washes with ice-cold wash buffer (20mM HEPES, pH 7.4). Filters were removed and placed in 7 ml scintillation vials containing 5 ml scintillation fluid (National Diagnostics) and radioactivity counted using a Beckman LS-6500 ß-counter. Nonspecific binding was defined by 100 µM atropine. […]

Assay [1] relates to rat primary tracheal smooth muscle cells. Nature of the assay: Cytosolic calcium imaging in rat tracheal smooth muscle cells. Type of assay: cell-based. The procedure:
Rat trachea were isolated as described above, except that a guillotine was used for sacrifice instead of cervical dislocation. The dorsal muscle layer was removed from the hyaline cartilage rings and minced into ~1-mm fragments in Ca^2+-free HEPES-buffered Krebs solution (140 mM NaCl, 4.7 mM KCl, 1.13 mM MgCl2, 10 mM HEPES, 10 mM glucose, pH 7.3). The tracheal smooth muscle (TSM) fragments were digested with 2.5 U/ml papain (MP Biomedicals) with 1 mg/ml BSA fraction V and 1 mg/ml dithiothreitol at 37°C on a rocking platform (250 rotations/min) for 20 min. After washing once with the Ca^2+-free Krebs solution the TSM fragments were digested with 12.5 U/ml of type VII collagenase (Sigma Chemical) for 10 min on a rocking platform at 37°C, washed and centrifuged (750 G for two min.) three times in Ca^2+-free Krebs-BSA solution and gently triturated up to 5 min to disburse single tracheal myocytes. TSM cells were stored on ice in Ca^2+-free Krebs-BSA solution and used the same day.
TSM cells were placed on a coverslip in a 1 ml perfusion chamber on an inverted microscope and incubated with 20 μM Cal-520 AM dye (AAT Bioquest, Sunnyvale, California, USA) in 0.2% Pluronic F-127 and 1 mM probenecid in HBSS at room temperature for 30 min. The chamber was fitted with a top adaptor and coverslip (Warner Instruments, RC37WC) to establish a closed perfusion chamber. […]

T1 sequence (P20309 whole entry): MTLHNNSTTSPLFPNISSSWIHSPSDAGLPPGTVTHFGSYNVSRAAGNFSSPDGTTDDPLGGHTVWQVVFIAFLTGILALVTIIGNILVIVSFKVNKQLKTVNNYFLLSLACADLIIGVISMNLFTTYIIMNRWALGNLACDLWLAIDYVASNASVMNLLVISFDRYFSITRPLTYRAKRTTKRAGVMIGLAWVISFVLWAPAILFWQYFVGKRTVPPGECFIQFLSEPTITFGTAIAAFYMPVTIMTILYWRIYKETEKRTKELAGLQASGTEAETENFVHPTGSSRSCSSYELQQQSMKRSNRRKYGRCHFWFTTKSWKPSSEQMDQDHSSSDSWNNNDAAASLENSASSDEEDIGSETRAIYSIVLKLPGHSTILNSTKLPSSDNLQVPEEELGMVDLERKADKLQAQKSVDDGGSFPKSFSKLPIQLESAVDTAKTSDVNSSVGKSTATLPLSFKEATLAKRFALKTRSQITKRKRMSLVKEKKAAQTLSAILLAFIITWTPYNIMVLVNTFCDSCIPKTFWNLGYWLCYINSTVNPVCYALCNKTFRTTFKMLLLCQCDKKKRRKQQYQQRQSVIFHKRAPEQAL

For the molecule `c1cc2cc(c1)C[n+]1ccc(c3ccccc31)NCc1ccc(cc1)CNc1cc[n+](c3ccccc13)C2` [UCL 1684, 6,12,19,20,25,26-Hexahydro-5,27:13,18:21,24-trietheno-11,7-metheno-7H-dibenzo [b,n] [1,5,12,16]tetraazacyclotricosine-5,13-diium dibromide], the “Bronchial diameter during second carbachol challenge normalized to first challenge” value with mouse lung lower airways is 178.3% and 178.3 ± 19.0%. Further, the “Relaxation response of bladder” value in the assay with bladder is recorded as 31.4 ± 8.4. Besides, the Ki on M3 mACHR (n=3 separate experiments, read-out: Average Ki, competition binding) is 909 nM; on M3 mACHR (single experiment shown, read-out: pKi, representative binding experiment (converted)), 1120 nM. The “Calcium response (integral) to second carbachol relative to first” value in assay [1] (3.5 μM UCL 1684, 0.5 μM carbachol, rat TSMC) was 0.42 ± 0.04. For the same molecule, in assay [1] (Rattus norvegicus, read-out: CCH-evoked cytosolic calcium, % of control), the activity at 3.5 µM is 42%.
